Laboratory results: US20030032065A1, “Ensemble-based strategy for the design of protein pharmaceuticals” (priority 2001, published 2003)
Ends that are not written are not given here.

Tests used:
[1] = target: T1, streptavidin (Streptomyces avidinii, UniProt P22629); assay type: binding; details: peptide-streptavidin complex, association constant
[2] = target: T1, streptavidin; details: peptide-streptavidin complex, experimentally observed binding constant; cited from earlier work

T1 sequence (P22629 25-183): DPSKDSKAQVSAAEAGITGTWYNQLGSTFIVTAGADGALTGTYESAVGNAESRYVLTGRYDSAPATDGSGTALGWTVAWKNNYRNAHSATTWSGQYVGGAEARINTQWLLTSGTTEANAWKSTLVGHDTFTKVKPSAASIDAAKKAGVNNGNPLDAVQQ

Row | Substance | Observed KA [1] | Kd [2]
1 | AECHPQFCIEGRK | 2.13 µM⁻¹ | 0.47 µM
2 | AECHPQFNCIEGRK | 0.14 µM⁻¹ | 7 µM
3 | AECHPQFPCIEGRK | 1.08 µM⁻¹ | 0.93 µM
4 | AECHPQGPPCIEGRK | 4.35 µM⁻¹ | 0.23 µM
5 | AHPQFGAEK | 0.005 µM⁻¹ | 204 µM
6 | AHPQFPAEK | 0.007 µM⁻¹ | 136 µM
7 | FSHPQNT | 0.008 µM⁻¹ | –
8 | HDHPQNL | 0.004 µM⁻¹ | 282 µM
9 | RCCHPQCGMAEEC | 0.45 µM⁻¹ | 2.3 µM
10 | RCCHPQCGMVEEC | 3.3 µM⁻¹ | 1.3 µM
11 | RCCHPQFEPCMGC | 3.0 µM⁻¹ | 0.33 µM
12 | cyclo-(AHPQFGAE)K (AHPQFGAEK; also: cyclic, ring closure not given here) | 0.05 µM⁻¹ | 19 µM
13 | cyclo-(AHPQFPAE)K (AHPQFPAEK; also: cyclic, ring closure not given here) | 7.69 µM⁻¹ | 0.13 µM
14 | cyclo-(AQYGHFAE)K (AQYGHFAEK; also: cyclic, ring closure not given here) | 0.0002 µM⁻¹ | > 5000 µM
15 | cyclo-CHPQFC | 3.70 µM⁻¹ | 0.27 µM
16 | cyclo-CHPQGPPC (also: cyclic, closure type not given here) | 1.49 µM⁻¹ | 0.67 µM
